Data: ChEMBL document CHEMBL4507304, “Data for DCP probe TP-021” (2021)

Tests used:
[1] = target: Phosphatidylinositol 4-phosphate 5-kinase type-1 gamma (Homo sapiens) (UniProt O60331); conditions: Compound concentration 1000.0 nM
[2] = target: Cyclin-dependent kinase 4 (Homo sapiens) (UniProt P11802); conditions: Compound concentration 1000.0 nM
[3] = target: Serine/threonine-protein kinase 25 (Homo sapiens) (UniProt O00506); conditions: Compound concentration 1000.0 nM
[4] = target: Fibroblast growth factor receptor 4 (Homo sapiens) (UniProt P22455); conditions: Compound concentration 1000.0 nM
[5] = target: cAMP-dependent protein kinase catalytic subunit alpha (Homo sapiens) (UniProt P17612); conditions: Compound concentration 1000.0 nM
[6] = target: Delta-type opioid receptor (Homo sapiens) (UniProt P41143); conditions: Compound concentration 10.0 uM
[7] = target: GABA-A receptor; anion channel (Rattus norvegicus) (UniProt O09028+P15431+P18506+P18508+P19969+P20236+P23574+P23576+P28471+P28473+P30191+P62813+P63079+P63138+Q91ZM7+Q9ES14); conditions: Compound concentration 10.0 uM
[8] = target: MAP kinase-interacting serine/threonine-protein kinase 1 (Homo sapiens) (UniProt Q9BUB5); conditions: Compound concentration 1000.0 nM
[9] = target: Tyrosine-protein kinase BTK (Homo sapiens) (UniProt Q06187); conditions: Compound concentration 1000.0 nM
[10] = target: Aurora kinase C (Homo sapiens) (UniProt Q9UQB9); conditions: Compound concentration 1000.0 nM
[11] = target: Tyrosine-protein kinase Fyn (Homo sapiens) (UniProt P06241); conditions: Compound concentration 1000.0 nM
[12] = target: High affinity nerve growth factor receptor (Homo sapiens) (UniProt P04629); conditions: Compound concentration 1000.0 nM
[13] = target: 5'-AMP-activated protein kinase catalytic subunit alpha-2 (Homo sapiens) (UniProt P54646); conditions: Compound concentration 1000.0 nM
[14] = target: Glycogen synthase kinase-3 alpha (Homo sapiens) (UniProt P49840); conditions: Compound concentration 1000.0 nM
[15] = system: Epidermal growth factor receptor (Homo sapiens), P00533 [L861Q]; conditions: Compound concentration 1000.0 nM
[16] = target: Cyclin-dependent kinase 7 (Homo sapiens) (UniProt P50613); conditions: Compound concentration 1000.0 nM
[17] = system: Epidermal growth factor receptor (Homo sapiens), P00533 [L858R,T790M]; conditions: Compound concentration 1000.0 nM
[18] = target: AP2-associated protein kinase 1 (Homo sapiens) (UniProt Q2M2I8); conditions: Compound concentration 1000.0 nM
[19] = target: Calcium/calmodulin-dependent protein kinase type 1B (Homo sapiens) (UniProt Q6P2M8); conditions: Compound concentration 1000.0 nM
[20] = target: Ephrin type-A receptor 8 (Homo sapiens) (UniProt P29322); conditions: Compound concentration 1000.0 nM
[21] = target: Ephrin type-A receptor 4 (Homo sapiens) (UniProt P54764); conditions: Compound concentration 1000.0 nM
[22] = target: Histamine H2 receptor (Homo sapiens) (UniProt P25021); conditions: Compound concentration 10.0 uM
[23] = target: SRSF protein kinase 1 (Homo sapiens) (UniProt Q96SB4); conditions: Compound concentration 1000.0 nM
[24] = target: Citron Rho-interacting kinase (Homo sapiens) (UniProt O14578); conditions: Compound concentration 1000.0 nM
[25] = target: Serine/threonine-protein kinase PAK 3 (Homo sapiens) (UniProt O75914); conditions: Compound concentration 1000.0 nM
[26] = target: Cyclin-dependent kinase 8 (Homo sapiens) (UniProt P49336); conditions: Compound concentration 1000.0 nM
[27] = system: Receptor-type tyrosine-protein kinase FLT3 (Homo sapiens), P36888 [UNDEFINED MUTATION]; conditions: Compound concentration 1000.0 nM
[28] = target: Tyrosine-protein kinase receptor Tie-1 (Homo sapiens) (UniProt P35590); conditions: Compound concentration 1000.0 nM
[29] = target: Mitogen-activated protein kinase kinase kinase kinase 5 (Homo sapiens) (UniProt Q9Y4K4); conditions: Compound concentration 1000.0 nM
[30] = target: Mitogen-activated protein kinase kinase kinase 19 (Homo sapiens) (UniProt Q56UN5); conditions: Compound concentration 1000.0 nM
[31] = target: Vascular endothelial growth factor receptor 1 (Homo sapiens) (UniProt P17948); conditions: Compound concentration 1000.0 nM
[32] = target: Serine/threonine-protein kinase TAO2 (Homo sapiens) (UniProt Q9UL54); conditions: Compound concentration 1000.0 nM
[33] = target: Tyrosine-protein kinase receptor TYRO3 (Homo sapiens) (UniProt Q06418); conditions: Compound concentration 1000.0 nM
[34] = target: Receptor-interacting serine/threonine-protein kinase 1 (Homo sapiens) (UniProt Q13546); conditions: Compound concentration 1000.0 nM
[35] = target: Muscarinic acetylcholine receptor M2 (Homo sapiens) (UniProt P08172); conditions: Compound concentration 10.0 uM
[36] = target: Ribosomal protein S6 kinase alpha-5 (Homo sapiens) (UniProt O75582); conditions: Compound concentration 1000.0 nM
[37] = system: Tyrosine-protein kinase ABL1 (Homo sapiens), P00519 [E255K]; conditions: Compound concentration 1000.0 nM
[38] = target: Leukocyte tyrosine kinase receptor (Homo sapiens) (UniProt P29376); conditions: Compound concentration 1000.0 nM
[39] = target: Casein kinase I isoform delta (Homo sapiens) (UniProt P48730); conditions: Compound concentration 1000.0 nM
[40] = target: Serine/threonine-protein kinase pim-3 (Homo sapiens) (UniProt Q86V86); conditions: Compound concentration 1000.0 nM
[41] = target: Serine/threonine-protein kinase mTOR (Homo sapiens) (UniProt P42345); conditions: Compound concentration 1000.0 nM
[42] = target: 5'-AMP-activated protein kinase catalytic subunit alpha-1 (Homo sapiens) (UniProt Q13131); conditions: Compound concentration 1000.0 nM
[43] = target: Non-receptor tyrosine-protein kinase TYK2 (Homo sapiens) (UniProt P29597); conditions: Compound concentration 1000.0 nM
[44] = target: Serine/threonine-protein kinase 24 (Homo sapiens) (UniProt Q9Y6E0); conditions: Compound concentration 1000.0 nM
Chain of Serine/threonine-protein kinase 24 (Homo sapiens) (Q9Y6E0 whole entry, looked up): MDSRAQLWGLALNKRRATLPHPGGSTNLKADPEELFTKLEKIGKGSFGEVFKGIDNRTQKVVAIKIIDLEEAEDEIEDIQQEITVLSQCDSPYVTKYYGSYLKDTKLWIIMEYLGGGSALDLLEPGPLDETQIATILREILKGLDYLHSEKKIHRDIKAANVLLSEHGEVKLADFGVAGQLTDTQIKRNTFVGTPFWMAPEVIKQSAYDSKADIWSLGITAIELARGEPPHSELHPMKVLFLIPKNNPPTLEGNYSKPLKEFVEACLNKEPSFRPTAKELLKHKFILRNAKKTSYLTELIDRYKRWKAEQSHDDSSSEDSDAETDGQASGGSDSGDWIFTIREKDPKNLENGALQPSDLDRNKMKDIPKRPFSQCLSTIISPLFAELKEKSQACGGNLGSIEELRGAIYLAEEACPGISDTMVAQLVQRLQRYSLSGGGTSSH

Chain of AP2-associated protein kinase 1 (Homo sapiens) (Q2M2I8 whole entry, looked up): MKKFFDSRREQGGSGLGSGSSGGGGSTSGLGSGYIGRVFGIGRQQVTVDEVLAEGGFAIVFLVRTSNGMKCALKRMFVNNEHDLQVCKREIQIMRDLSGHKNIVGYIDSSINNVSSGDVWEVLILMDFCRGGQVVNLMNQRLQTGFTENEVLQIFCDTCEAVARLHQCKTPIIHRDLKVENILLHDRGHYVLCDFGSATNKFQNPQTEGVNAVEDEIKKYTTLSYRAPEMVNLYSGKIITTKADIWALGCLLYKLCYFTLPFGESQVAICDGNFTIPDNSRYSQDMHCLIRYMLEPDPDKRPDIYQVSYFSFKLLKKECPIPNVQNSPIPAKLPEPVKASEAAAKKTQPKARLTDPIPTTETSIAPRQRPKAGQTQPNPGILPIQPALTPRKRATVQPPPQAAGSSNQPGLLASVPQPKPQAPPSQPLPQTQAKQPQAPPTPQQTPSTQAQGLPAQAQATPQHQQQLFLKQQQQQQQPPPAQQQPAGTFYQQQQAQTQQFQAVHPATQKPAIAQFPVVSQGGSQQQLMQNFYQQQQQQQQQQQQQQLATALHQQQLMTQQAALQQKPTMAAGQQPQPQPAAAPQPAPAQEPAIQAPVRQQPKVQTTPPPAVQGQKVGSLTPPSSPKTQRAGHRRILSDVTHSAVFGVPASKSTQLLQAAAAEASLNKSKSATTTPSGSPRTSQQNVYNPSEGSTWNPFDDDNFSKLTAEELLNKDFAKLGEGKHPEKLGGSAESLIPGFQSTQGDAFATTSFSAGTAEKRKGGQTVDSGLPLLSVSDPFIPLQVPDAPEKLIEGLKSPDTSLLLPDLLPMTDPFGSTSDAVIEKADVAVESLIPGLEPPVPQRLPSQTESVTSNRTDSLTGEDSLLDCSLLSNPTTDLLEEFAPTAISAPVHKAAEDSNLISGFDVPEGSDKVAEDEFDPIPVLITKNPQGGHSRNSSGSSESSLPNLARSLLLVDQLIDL
Chain of Serine/threonine-protein kinase PAK 3 (Homo sapiens) (O75914 whole entry, looked up): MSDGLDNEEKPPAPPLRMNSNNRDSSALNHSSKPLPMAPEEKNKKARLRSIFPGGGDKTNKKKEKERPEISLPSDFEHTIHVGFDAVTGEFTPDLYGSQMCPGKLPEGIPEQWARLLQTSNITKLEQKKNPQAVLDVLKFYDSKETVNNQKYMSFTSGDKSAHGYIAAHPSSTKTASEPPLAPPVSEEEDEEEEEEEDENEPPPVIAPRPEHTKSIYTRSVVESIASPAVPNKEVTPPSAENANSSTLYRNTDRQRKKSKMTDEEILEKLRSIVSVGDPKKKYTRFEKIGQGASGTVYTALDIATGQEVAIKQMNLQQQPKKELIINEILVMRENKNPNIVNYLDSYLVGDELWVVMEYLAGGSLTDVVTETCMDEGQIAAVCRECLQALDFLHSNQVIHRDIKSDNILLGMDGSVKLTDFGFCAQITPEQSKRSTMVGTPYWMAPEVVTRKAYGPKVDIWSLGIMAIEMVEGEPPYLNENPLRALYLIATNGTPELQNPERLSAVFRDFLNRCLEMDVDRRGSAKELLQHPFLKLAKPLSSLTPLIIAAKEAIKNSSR
Chain of Ephrin type-A receptor 4 (Homo sapiens) (P54764 whole entry): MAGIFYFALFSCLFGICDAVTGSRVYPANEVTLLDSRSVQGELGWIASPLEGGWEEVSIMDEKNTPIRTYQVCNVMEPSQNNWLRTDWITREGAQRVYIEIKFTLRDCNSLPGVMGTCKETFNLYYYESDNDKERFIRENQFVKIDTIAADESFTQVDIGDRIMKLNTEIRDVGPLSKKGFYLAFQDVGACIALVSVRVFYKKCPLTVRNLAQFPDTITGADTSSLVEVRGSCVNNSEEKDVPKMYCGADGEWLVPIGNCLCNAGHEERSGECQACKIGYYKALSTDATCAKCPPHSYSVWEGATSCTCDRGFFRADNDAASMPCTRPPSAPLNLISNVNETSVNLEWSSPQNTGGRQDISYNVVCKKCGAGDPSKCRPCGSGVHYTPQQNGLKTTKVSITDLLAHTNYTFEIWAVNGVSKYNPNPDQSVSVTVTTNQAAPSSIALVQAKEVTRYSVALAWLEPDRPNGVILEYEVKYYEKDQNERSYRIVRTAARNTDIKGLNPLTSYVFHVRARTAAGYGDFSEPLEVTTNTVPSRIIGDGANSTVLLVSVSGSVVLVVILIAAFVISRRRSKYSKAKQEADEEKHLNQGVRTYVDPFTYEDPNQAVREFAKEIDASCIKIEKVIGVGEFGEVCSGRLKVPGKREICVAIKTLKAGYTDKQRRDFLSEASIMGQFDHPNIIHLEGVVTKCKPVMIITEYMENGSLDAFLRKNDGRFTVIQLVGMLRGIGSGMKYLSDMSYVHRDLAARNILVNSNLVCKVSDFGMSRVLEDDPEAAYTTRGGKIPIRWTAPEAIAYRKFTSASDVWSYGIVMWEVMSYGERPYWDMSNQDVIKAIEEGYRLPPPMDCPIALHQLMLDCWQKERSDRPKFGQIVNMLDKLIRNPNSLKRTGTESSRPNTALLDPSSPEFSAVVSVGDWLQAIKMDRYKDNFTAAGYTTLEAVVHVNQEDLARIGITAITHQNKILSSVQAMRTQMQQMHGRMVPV
Chain of Casein kinase I isoform delta (Homo sapiens) (P48730 whole entry, looked up, canonical isoform): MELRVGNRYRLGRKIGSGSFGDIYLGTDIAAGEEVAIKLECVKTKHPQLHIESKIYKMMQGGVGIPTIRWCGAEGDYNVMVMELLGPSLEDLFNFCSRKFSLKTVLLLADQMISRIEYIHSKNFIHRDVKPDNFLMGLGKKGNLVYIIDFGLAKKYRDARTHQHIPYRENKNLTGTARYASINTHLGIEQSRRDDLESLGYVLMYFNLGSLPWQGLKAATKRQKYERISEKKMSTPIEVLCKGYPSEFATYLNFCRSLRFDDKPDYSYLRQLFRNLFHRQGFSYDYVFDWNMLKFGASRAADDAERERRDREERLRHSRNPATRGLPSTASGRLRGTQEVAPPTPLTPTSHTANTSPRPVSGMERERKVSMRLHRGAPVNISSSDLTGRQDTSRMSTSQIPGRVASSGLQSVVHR
Chain of Serine/threonine-protein kinase 25 (Homo sapiens) (O00506 whole entry, looked up): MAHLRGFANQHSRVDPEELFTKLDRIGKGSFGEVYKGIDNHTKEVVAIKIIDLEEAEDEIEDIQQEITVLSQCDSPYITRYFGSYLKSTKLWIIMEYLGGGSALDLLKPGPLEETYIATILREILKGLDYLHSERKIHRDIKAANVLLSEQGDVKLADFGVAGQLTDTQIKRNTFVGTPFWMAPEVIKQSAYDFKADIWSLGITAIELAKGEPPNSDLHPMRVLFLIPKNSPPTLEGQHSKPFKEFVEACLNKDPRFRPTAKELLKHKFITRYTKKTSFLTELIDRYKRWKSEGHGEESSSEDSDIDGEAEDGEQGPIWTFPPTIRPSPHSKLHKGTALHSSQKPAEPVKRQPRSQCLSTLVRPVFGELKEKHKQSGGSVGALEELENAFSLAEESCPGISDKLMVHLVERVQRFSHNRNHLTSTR
Chain of Tyrosine-protein kinase receptor TYRO3 (Homo sapiens) (Q06418 whole entry): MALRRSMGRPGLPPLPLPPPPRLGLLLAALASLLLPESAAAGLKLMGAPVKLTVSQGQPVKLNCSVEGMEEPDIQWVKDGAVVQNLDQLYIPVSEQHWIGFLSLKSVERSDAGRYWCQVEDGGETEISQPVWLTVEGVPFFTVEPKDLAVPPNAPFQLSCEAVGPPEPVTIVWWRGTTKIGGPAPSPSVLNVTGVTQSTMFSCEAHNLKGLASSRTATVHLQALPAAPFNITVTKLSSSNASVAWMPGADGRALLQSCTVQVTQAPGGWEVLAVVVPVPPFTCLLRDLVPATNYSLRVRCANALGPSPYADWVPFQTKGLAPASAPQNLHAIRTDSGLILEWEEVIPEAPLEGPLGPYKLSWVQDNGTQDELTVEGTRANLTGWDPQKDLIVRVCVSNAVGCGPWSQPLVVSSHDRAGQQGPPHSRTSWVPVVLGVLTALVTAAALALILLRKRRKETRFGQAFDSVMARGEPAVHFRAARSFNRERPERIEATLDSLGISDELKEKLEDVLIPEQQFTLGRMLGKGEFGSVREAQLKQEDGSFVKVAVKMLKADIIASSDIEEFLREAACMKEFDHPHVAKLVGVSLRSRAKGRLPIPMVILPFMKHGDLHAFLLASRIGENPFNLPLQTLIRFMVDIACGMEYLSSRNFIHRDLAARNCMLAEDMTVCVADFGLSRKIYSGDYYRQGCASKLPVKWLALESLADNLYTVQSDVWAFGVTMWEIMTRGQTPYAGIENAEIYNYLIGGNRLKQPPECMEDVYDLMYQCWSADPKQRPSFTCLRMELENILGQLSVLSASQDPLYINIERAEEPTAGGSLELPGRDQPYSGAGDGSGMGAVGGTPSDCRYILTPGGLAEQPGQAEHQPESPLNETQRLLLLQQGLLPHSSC
Chain of Delta-type opioid receptor (Homo sapiens) (P41143 whole entry): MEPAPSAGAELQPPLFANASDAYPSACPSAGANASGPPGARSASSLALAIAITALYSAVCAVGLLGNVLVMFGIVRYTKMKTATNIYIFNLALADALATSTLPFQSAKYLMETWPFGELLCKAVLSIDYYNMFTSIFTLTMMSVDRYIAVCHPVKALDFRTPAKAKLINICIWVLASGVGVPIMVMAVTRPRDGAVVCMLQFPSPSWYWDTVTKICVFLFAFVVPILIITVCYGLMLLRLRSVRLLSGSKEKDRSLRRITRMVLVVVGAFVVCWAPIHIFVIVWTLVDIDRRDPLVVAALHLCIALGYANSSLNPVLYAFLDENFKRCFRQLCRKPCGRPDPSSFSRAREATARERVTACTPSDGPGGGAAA

N#Cc1ccc(Nc2ccc3[nH]c(=O)[nH]c3c2)c(Cl)c1
inactive: residual activity [1] 67% | residual activity [2] 100% | residual activity [3] 100% | residual activity [4] 100% | residual activity [5] 96% | inhibition [6] -0.28% | inhibition [7] 15.5% | residual activity [8] 100% | residual activity [9] 100% | residual activity [10] 100% | residual activity [11] 89% | residual activity [12] 93% | residual activity [13] 81% | residual activity [14] 100% | residual activity [15] 100% | residual activity [16] 99% | residual activity [17] 79% | residual activity [18] 100% | residual activity [19] 78% | residual activity [20] 100% | residual activity [21] 100% | inhibition [22] 2.26% | residual activity [23] 95% | residual activity [24] 100% | residual activity [25] 100% | residual activity [26] 100% | residual activity [27] 100% | residual activity [28] 91% | residual activity [29] 77% | residual activity [30] 100% | residual activity [31] 100% | residual activity [32] 100% | residual activity [33] 62% | residual activity [34] 100% | inhibition [35] 3.51% | residual activity [36] 100% | residual activity [37] 92% | residual activity [38] 100% | residual activity [39] 100% | residual activity [40] 100% | residual activity [41] 98% | residual activity [42] 100% | residual activity [43] 100% | residual activity [44] 100%

O=C1CCc2cc(Nc3cc(OC4CCOCC4)c([N+](=O)[O-])cc3Cl)ccc2N1
inactive: residual activity [1] 100% | residual activity [2] 81% | residual activity [3] 100% | residual activity [4] 81% | residual activity [5] 96% | inhibition [6] 3.32% | inhibition [7] 12.7% | residual activity [8] 100% | residual activity [9] 100% | residual activity [10] 100% | residual activity [11] 64% | residual activity [12] 94% | residual activity [13] 100% | residual activity [14] 100% | residual activity [15] 100% | residual activity [16] 86% | residual activity [17] 76% | residual activity [18] 100% | residual activity [19] 68% | residual activity [20] 100% | residual activity [21] 84% | inhibition [22] 20.6% | residual activity [23] 73% | residual activity [24] 100% | residual activity [25] 100% | residual activity [26] 100% | residual activity [27] 100% | residual activity [28] 100% | residual activity [29] 87% | residual activity [30] 100% | residual activity [31] 100% | residual activity [32] 82% | residual activity [33] 100% | residual activity [34] 100% | inhibition [35] 5.41% | residual activity [36] 100% | residual activity [37] 88% | residual activity [38] 100% | residual activity [39] 90% | residual activity [40] 100% | residual activity [41] 89% | residual activity [42] 100% | residual activity [43] 94% | residual activity [44] 97%
